Where two headings read alike, the source gives them in different places.
Columns and labels:
hypoxic cells in culture = assay: Radiosensitivity in vitro: drug concentration giving a sensitizer enhancement ratio of 1.6; type: cell-based; conditions: concentration of drug necessary to produce a sensitizer enhancement ratio of 1.6 of hypoxic cells in culture
From the text: The results of assays to determine the concentration of drug necessary to produce a sensitizer enhancement ratio of 1.6 of hypoxic cells in culture are as follows: […]

[1] = Polarographic half-wave reduction potential; type: physicochemical; conditions: Britton & Robinson pH 7.4 buffer, dropping mercury electrode
HA-1 cells = assay: Hypoxic versus aerobic cytotoxicity from survival curves of HA-1 cells; type: cell-based; conditions: for cytotoxicity against hypoxic HA-1 tumor cells in vitro compared to 22 / RHT (Relative Hypoxic Cytoxicity): hypoxic conditions; for RHT (Relative Hypoxic Cytoxicity): ratio of equitoxic concentrations of 22:analog; for RHT (Relative Hypoxic Cytoxicity) / HCR (Hypoxic Cytoxicity Ratio): HA-1 cells; for HCR (Hypoxic Cytoxicity Ratio): ratio of equitoxic concentrations of each analog, hypoxic:aerobic conditions
Solubility = type: physicochemical
[2] = Octanol-water partition coefficient (method of Fujita et al.); type: physicochemical; conditions: pH 7.4 buffer
Determination of LD50 = type: in vivo; conditions: mouse, in vivo; Balb/c female mice 3 months of age; ip (or iv) injection
Protocol: (§1) LD50 is determined in BALB/c female mice (weighing 20-25 g) following intraperitoneal (ip) injection, unless the compound tested has low lipophilicity and is very soluble, wherein intravenous (iv) administration is used. LD50 values at 1, 2, 5, and 60 days are determined by administering graded doses of the drug dissolved in physiological saline immediately prior to injection.

BALB/c female mice = assay: Determination of LD50; type: in vivo; conditions: Balb/c female mice 3 months of age; ip (or iv) injection
Protocol: as §1

SCCVII carcinomas = assay: In vivo assay for activity in combination with radiation; design: species or system C3H mice; conditions: fixed radiation dose 20 Gy, 2 hr after to 3 hr before drug injection; FIG. 2
[3] = test system: aerobic and hypoxic cells in culture (human, mouse, and hamster); assay: Cytotoxicity tests on aerobic and hypoxic cells in culture; type: cell-based
Protocol: The cells in spinner flasks were gassed for one hour at 37° C. with either air or nitrogen containing 5% CO2 prior to adding the specified amounts of the drug.

SCCVII tumor [4] = assay: Enhanced tumor cell toxicity using hydralazine; type: in vivo, mice; conditions: FIG. 3
Protocol: For this assay, SCCVII carcinomas in female C3H mice weighing 20-25 g were used. These mice were bred under specific pathogen-free conditions and were 3-4 months old at the beginning of each experiment. The SCCVII tumor was grown intradermally in the flank from an inoculation of 2×10^5 tumor cells taken from the 2nd-8th in vitro passage of the tumor cells after removal from the previous in vivo tumor. Two tumors per mouse were implanted, and were used as subject tumors when they reached a volume of approximately 100 ml. At this point the tumors contained approximately 20% hypoxic cells.
The amount of cell killing was judged by survival rate of dissected and cultured tumor cells as follows. The tumor-bearing mice were killed 24 hr after irradiation, and tumors were dissected from the skin, cut into several pieces, and made into a fine brei by high-speed chopping with a razor blade attached to a jigsaw. The brei was added to 30 ml of Hank's buffered salt solution (HBSS) containing 0.02% DNase, 0.05% promase, and 0.02% collagenase. The suspension was stirred for 30 min at 37° C., filtered, and centrifuged at 1,600 rmp for 10 min at 4° C. […] Suitable dilutions of this serum plated into 60- or 100-mm polystyrene petri dishes (Lux Scientific Corp) in 5 or 15 ml of medium. After incubation for 13 days, the colonies were fixed and stained, and those containing 50 cells or more were counted. […]

[5] = test system: Chinese hamster ovary (CHO) cells; assay: Aerobic radiosensitization of CHO cells by hypoxic pre- or post-treatment; type: cell-based; conditions: for cell survival after drug treatment alone: 20 μM, hypoxic
From the text: The sensitization was predominantly a change in the slope of the radiation survival curve. Do decreased from 1.34 Gy (95% confidence limits: 1.09-1.76 Gy) to 0.80 Gy (95% confidence limits: 0.73-0.88 Gy), based on least-squares regression analysis of pooled data for the exponential portions of the survival curves for control and treated cells. However, sensitization at low radiation doses was also readily apparent.

SCCVII tumor [6] = assay: Fractionated radiotherapy of SCCVII tumors (8 x 2.5 Gy in four days); conditions: SR 2508 1000 mg/kg before each dose; for effect on growth delay of irradiated tumors: compound 22 0.08 mmole/kg alone before or with HDZ after irradiation, FIG. 6; for effect on radiation response, clonogenic tumor cell survival: compound 22 0.08 mmole/kg alone or with HDZ, FIG. 5
From the text: Our protocol was to use eight doses of 2.5 Gy/dose in four days (irradiating 2×/day). […] We used two different types of controls. […] We assayed the efficacies of the treatments using clonogenic cell survival and also regrowth delay.

CCCCCCCCCCc1ccc2nc(N)n[n+]([O-])c2c1
melting point: 177 °C (dec.)

NC(=O)c1ccc2nc(N)n[n+]([O-])c2c1
melting point: 300 °C

CC(=NO)c1ccc2nc(N)n[n+]([O-])c2c1
melting point: 278 °C (dec.)

6(7)-methoxy-3-amino-1,2,4-benzotriazine 1,4-dioxide
C1.6 (hypoxic cells in culture): ˜1.0 mM

[O-][n+]1nc(O)[n+]([O-])c2ccccc21 [3-hydroxy-1,2,4-benzotriazine 1,4-dioxide]
C1.6 (hypoxic cells in culture): ˜2.0 mM

Nc1nc2ccc(Cl)cc2[n+]([O-])n1 [7-chloro-3-amino-1,2,4-benzotriazine 1-oxide]
C1.6 (hypoxic cells in culture): 3.3 mM

Nc1n[n+]([O-])c2cc([N+](=O)[O-])ccc2[n+]1[O-] [Compound 14, 7-nitro-3-amino-1,2,4-benzotriazine 1,4-dioxide]
E1/2 [1]: −133 mV
cytotoxicity against hypoxic HA-1 tumor cells in vitro compared to 22 (HA-1 cells): significantly enhanced cytotoxicity
RHT (Relative Hypoxic Cytoxicity) (HA-1 cells): 2
HCR (Hypoxic Cytoxicity Ratio) (HA-1 cells): 140

CCN(CC)CCCNc1n[n+]([O-])c2ccccc2[n+]1[O-] [Compound 18a, 3-(3-N,N-diethylaminopropylamino)-1,2,4-benzotriazine 1,4-dioxide]
solubility (Solubility; read-out: Solubility): > 181 mM
logP [2]: -1.34
E1/2 [1]: −348 mV
cytotoxicity against hypoxic HA-1 tumor cells in vitro compared to 22 (HA-1 cells): significantly enhanced cytotoxicity
LD50 (Determination of LD50): 250 µmol/kg

CCN(CC)CCNc1n[n+]([O-])c2cc([N+](=O)[O-])ccc2[n+]1[O-].Cl [Compound 21, 7-nitro-3-(2-N,N-diethylaminoethylamino)-1,2,4-benzotriazine 1,4-dioxide hydrochloride]
solubility (Solubility): 96.40 mM
Log P [2]: −0.20
E1/2 [1]: −140 mV
cytotoxicity against hypoxic HA-1 tumor cells in vitro compared to 22 (HA-1 cells): significantly enhanced cytotoxicity
RHT (Relative Hypoxic Cytoxicity) (HA-1 cells): 3
HCR (Hypoxic Cytoxicity Ratio) (HA-1 cells): 211
LD50 (BALB/c female mice): 0.40

Nc1n[n+]([O-])c2ccccc2[n+]1[O-] [Compound 22, 3-amino-1,2,4-benzotriazine 1,4-dioxide]
tumor cell killing combined with radiation compared to radiation only (SCCVII carcinomas): enhanced cell killing compared to radiation only
drug concentration required under hypoxia for equal cell killing, as share of the aerobic concentration [3]: 1 to 2%
factor by which survival was reduced (SCCVII tumor [4]; combination with hydralazine): 10^3
cell killing in the SCCVII tumor, agent alone (SCCVII tumor [4]; single agent): neither hydralazine nor the aforementioned benzotriazine compound produced any significant cell killing
cell survival after drug treatment alone ([5]; 1.0 h preirradiation exposure): approximately 32%
cell survival after drug treatment alone ([5]; 1.5 h postirradiation treatment): 23%
cell survival after drug treatment alone ([5]; 1.5 h preirradiation exposure): ~19%
cell survival after drug treatment alone ([5]; 2.0 h preirradiation exposure): ~8%
cell survival after drug treatment alone ([5]; 2.5 h preirradiation exposure): ~2%
Do of the radiation survival curve of treated cells ([5]; pooled data of treated cells, control 1.34 Gy, 95% confidence limits 0.73-0.88 Gy): 0.80 Gy
effect on growth delay of irradiated tumors (SCCVII tumor [6]): large increase in effect compared to radiation or drug alone
effect on radiation response, clonogenic tumor cell survival (SCCVII tumor [6]): large enhancement of the radiation response

O=C(Cn1ccnc1[N+](=O)[O-])NCCO [SR 2508, reference compound]
effect on growth delay of irradiated tumors (SCCVII tumor [6]): no radiosensitizing effect
effect on radiation response, clonogenic tumor cell survival (SCCVII tumor [6]): no effect
